From ChEMBL document CHEMBL1201862, “PubChem BioAssay data set” (2004)
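Where inhibition never reached the appropriate level, the endpoint shown equals the highest concentration tested. Otherwise, values were interpolated linearly from a five-concentration, 48-hour dose response in 96-well plates. GI50 marks 50% less growth.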 The source made the active and inactive calls. Rule as the data show it: active = GI50 up to about 1.1 µM and inactive = higher.

Tests used:
Assay in all cases: DTP human tumour cell line panel, 48 h
RPMI-8226 = system: RPMI-8226
SK-MEL-5 = system: SK-MEL-5
OVCAR-3 = system: OVCAR-3
SW-620 = system: SW-620
A498 = system: A498
HOP-92 = system: HOP-92
HCT-116 = system: HCT-116
UO-31 = system: UO-31
SN12C = system: SN12C
IGROV-1 = system: IGROV-1
MOLT-4 = system: MOLT-4
SF-295 = system: SF-295
SNB-19 = system: SNB-19
K562 = system: K562
SNB-75 = system: SNB-75
HT-29 = system: HT-29
TK-10 = system: TK-10
SK-MEL-28 = system: SK-MEL-28
HCT-15 = system: HCT-15

| SMILES | GI50 (RPMI-8226) | GI50 (SK-MEL-5) | GI50 (OVCAR-3) | GI50 (SW-620) | GI50 (A498) | GI50 (HOP-92) | GI50 (HCT-116) | GI50 (UO-31) | GI50 (SN12C) | GI50 (IGROV-1) | GI50 (MOLT-4) | GI50 (SF-295) | GI50 (SNB-19) | GI50 (K562) | GI50 (SNB-75) | GI50 (HT-29) | GI50 (TK-10) | GI50 (SK-MEL-28) | GI50 (HCT-15) |
| --- | --- | --- | --- | --- | --- | --- | --- | --- | --- | --- | --- | --- | --- | --- | --- | --- | --- | --- | --- |
| O=[N+]([O-])c1nc(-c2ccccn2)[nH]c1[N+](=O)[O-] | > 100 µM (inactive) | 79.3 µM (inactive) | 59.2 µM (inactive) | 66.2 µM (inactive) | > 100 µM (inactive) | > 100 µM (inactive) | 22.3 µM (inactive) | 70.3 µM (inactive) | 71.6 µM (inactive) | > 100 µM (inactive) | 39.2 µM (inactive) | > 100 µM (inactive) | > 100 µM (inactive) | > 100 µM (inactive) | 64 µM (inactive) | 47.5 µM (inactive) | > 100 µM (inactive) | 54.7 µM (inactive) | – |
| Cc1cc(C)[n+](CCOc2ccc(/C(=C(/Cl)c3ccccc3)c3ccccc3)cc2)c(C)c1.[O-][Cl+3]([O-])([O-])[O-] | 0.348 µM (active) | 0.455 µM (active) | 0.659 µM (active) | 0.891 µM (active) | 3.87 µM (inactive) | 0.989 µM (active) | 0.743 µM (active) | 14.8 µM (inactive) | 0.774 µM (active) | 0.612 µM (active) | 1.28 µM (inactive) | 2.47 µM (inactive) | 0.865 µM (active) | 0.257 µM (active) | 0.697 µM (active) | 0.809 µM (active) | 3.52 µM (inactive) | 1.32 µM (inactive) | 13.4 µM |
| O=C(Nc1ccn(CCO)c(=O)n1)c1ccccc1 | > 100 µM (inactive) | > 100 µM (inactive) | > 100 µM (inactive) | > 100 µM (inactive) | > 100 µM (inactive) | > 100 µM (inactive) | > 100 µM (inactive) | > 100 µM (inactive) | > 100 µM (inactive) | > 100 µM (inactive) | – | > 100 µM (inactive) | – | > 100 µM (inactive) | > 100 µM (inactive) | > 100 µM (inactive) | > 100 µM (inactive) | > 100 µM (inactive) | > 100 µM |
| CCOC(=O)c1ncn2c1[nH]c(=S)c1ccccc12 | 31.3 µM (inactive) | > 100 µM (inactive) | > 100 µM (inactive) | 22.9 µM (inactive) | > 100 µM (inactive) | > 100 µM (inactive) | > 100 µM (inactive) | > 100 µM (inactive) | > 100 µM (inactive) | > 100 µM (inactive) | > 100 µM (inactive) | > 100 µM (inactive) | > 100 µM (inactive) | 91.6 µM (inactive) | > 100 µM (inactive) | > 100 µM (inactive) | > 100 µM (inactive) | > 100 µM (inactive) | > 100 µM |
| CN1C(=O)CNS1(=O)=O | > 100 µM (inactive) | > 100 µM (inactive) | > 100 µM (inactive) | > 100 µM (inactive) | > 100 µM (inactive) | > 100 µM (inactive) | > 100 µM (inactive) | > 100 µM (inactive) | > 100 µM (inactive) | > 100 µM (inactive) | > 100 µM (inactive) | > 100 µM (inactive) | > 100 µM (inactive) | > 100 µM (inactive) | 38.1 µM (inactive) | > 100 µM (inactive) | > 100 µM (inactive) | > 100 µM (inactive) | > 100 µM |
| O=C(O)c1ccc(NC(=O)C2C(=O)C(=O)N(c3ccc(C(=O)O)cc3)C2=O)cc1 (stereo not drawn) | > 100 µM (inactive) | – | > 100 µM (inactive) | > 100 µM (inactive) | > 100 µM (inactive) | > 100 µM (inactive) | > 100 µM (inactive) | > 100 µM (inactive) | > 100 µM (inactive) | > 100 µM (inactive) | > 100 µM (inactive) | > 100 µM (inactive) | > 100 µM (inactive) | > 100 µM (inactive) | > 100 µM (inactive) | > 100 µM (inactive) | > 100 µM (inactive) | > 100 µM (inactive) | > 100 µM |
| CCCCCCCCC/C=C1\CCC(CN(C)C)C1=O (stereo not drawn) | 0.0619 µM (active) | 2.05 µM (inactive) | – | 1.58 µM (inactive) | 2.48 µM (inactive) | 2.13 µM (inactive) | 1.8 µM (inactive) | 2.02 µM (inactive) | 2.08 µM (inactive) | 2.63 µM (inactive) | 2.62 µM (inactive) | 3.22 µM (inactive) | 5.87 µM (inactive) | 1.86 µM (inactive) | 2.37 µM (inactive) | 1.7 µM (inactive) | 2.18 µM (inactive) | 2.03 µM (inactive) | 2.22 µM |
| COC(=O)C(C(=O)C(N)=O)c1csc(-n2nc(-c3ccccc3)cc2-c2ccccc2)n1 (stereo not drawn) | > 31.6 µM (inactive) | 28.7 µM (inactive) | 43.2 µM (inactive) | 4.4 µM (inactive) | > 31.6 µM (inactive) | > 67 µM (inactive) | > 31.6 µM (inactive) | 13.5 µM (inactive) | > 10 µM (inactive) | 17.3 µM (inactive) | 25.5 µM (inactive) | > 87.9 µM (inactive) | 12.5 µM (inactive) | 23.8 µM (inactive) | > 31.6 µM (inactive) | 41.9 µM (inactive) | 21.5 µM (inactive) | > 31.6 µM (inactive) | > 31.6 µM |
| O=C(CC(=O)C1CCOC1=O)C(=O)Nc1cccc(Cl)c1 (stereo not drawn) | > 100 µM (inactive) | > 100 µM (inactive) | > 100 µM (inactive) | > 100 µM (inactive) | > 100 µM (inactive) | > 100 µM (inactive) | > 100 µM (inactive) | > 100 µM (inactive) | > 100 µM (inactive) | > 100 µM (inactive) | > 100 µM (inactive) | > 100 µM (inactive) | > 100 µM (inactive) | > 100 µM (inactive) | > 100 µM (inactive) | > 100 µM (inactive) | > 100 µM (inactive) | > 100 µM (inactive) | > 100 µM |
| Cc1ccc(-c2nc3ccccc3c(=O)n2NC2OC(CO)C(O)C(O)C2O)cc1 (stereo not drawn) | > 100 µM (inactive) | > 100 µM (inactive) | > 100 µM (inactive) | > 100 µM (inactive) | > 100 µM (inactive) | > 100 µM (inactive) | > 100 µM (inactive) | > 100 µM (inactive) | > 100 µM (inactive) | > 100 µM (inactive) | > 100 µM (inactive) | > 100 µM (inactive) | > 100 µM (inactive) | > 100 µM (inactive) | > 100 µM (inactive) | > 100 µM (inactive) | > 100 µM (inactive) | > 100 µM (inactive) | > 100 µM |
| Nc1nc(=O)[nH]c2c1cnn2COCCO | > 100 µM (inactive) | > 100 µM (inactive) | – | > 100 µM (inactive) | > 100 µM (inactive) | > 100 µM (inactive) | > 100 µM (inactive) | > 100 µM (inactive) | > 100 µM (inactive) | > 100 µM (inactive) | > 100 µM (inactive) | > 100 µM (inactive) | > 100 µM (inactive) | > 100 µM (inactive) | > 100 µM (inactive) | > 100 µM (inactive) | 20.7 µM (inactive) | 37.1 µM (inactive) | > 100 µM |
